Experiments:
TYK2 = TYK2 (Homo sapiens, UniProt P29597); experiment: JAK kinase activity inhibition, TR-FRET (TYK2); format: biochemical; details: TR-FRET kinase assay
How it was run: (§1)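 TR-FRET read (≈620 and 665 nm) after EDTA quench and 1-24 h antibody detection at RT. Kinase 0.1-20 nM, peptide substrate + ATP, 0.5-5 h RT reaction in HEPES 50-250 mM, MgCl2 5-20 mM. IC50 from 4-parameter fit vs DMSO and no-kinase controls.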

JAK3 = target: T1, JAK3 (Homo sapiens, UniProt P52333); experiment: JAK kinase activity inhibition, TR-FRET (JAK3); format: biochemical; details: TR-FRET kinase assay
T1 sequence (P52333 1-1124): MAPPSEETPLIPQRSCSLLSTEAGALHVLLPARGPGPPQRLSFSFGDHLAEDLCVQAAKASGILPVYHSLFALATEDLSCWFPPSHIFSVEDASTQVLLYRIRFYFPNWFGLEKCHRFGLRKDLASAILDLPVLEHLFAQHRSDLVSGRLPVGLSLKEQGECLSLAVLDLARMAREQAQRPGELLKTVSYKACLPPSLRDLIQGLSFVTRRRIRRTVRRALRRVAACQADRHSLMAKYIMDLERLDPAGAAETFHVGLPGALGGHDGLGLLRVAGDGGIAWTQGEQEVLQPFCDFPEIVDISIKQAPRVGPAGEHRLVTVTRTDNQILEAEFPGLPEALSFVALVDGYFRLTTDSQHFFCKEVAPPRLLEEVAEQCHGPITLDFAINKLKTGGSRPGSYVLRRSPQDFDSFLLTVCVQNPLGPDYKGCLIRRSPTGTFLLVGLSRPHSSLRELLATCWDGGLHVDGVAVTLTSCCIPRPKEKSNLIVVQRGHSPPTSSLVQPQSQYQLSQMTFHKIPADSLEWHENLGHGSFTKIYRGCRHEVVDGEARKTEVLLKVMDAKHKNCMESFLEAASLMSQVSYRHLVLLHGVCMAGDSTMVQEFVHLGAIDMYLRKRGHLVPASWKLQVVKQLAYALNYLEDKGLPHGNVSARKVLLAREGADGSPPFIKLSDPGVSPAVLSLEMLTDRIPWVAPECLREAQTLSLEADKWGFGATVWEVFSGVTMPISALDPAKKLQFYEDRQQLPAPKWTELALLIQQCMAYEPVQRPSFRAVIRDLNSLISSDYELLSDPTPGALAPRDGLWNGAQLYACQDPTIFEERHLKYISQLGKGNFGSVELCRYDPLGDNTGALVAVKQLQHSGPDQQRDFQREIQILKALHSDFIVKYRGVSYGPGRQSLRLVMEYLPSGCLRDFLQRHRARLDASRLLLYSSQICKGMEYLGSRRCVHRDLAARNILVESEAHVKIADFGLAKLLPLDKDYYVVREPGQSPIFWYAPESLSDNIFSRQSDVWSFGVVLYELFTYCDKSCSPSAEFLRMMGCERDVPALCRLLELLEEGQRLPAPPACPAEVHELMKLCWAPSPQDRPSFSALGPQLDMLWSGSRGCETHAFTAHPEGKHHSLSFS
How it was run: as §1

Sequence of TYK2 (P29597 whole entry): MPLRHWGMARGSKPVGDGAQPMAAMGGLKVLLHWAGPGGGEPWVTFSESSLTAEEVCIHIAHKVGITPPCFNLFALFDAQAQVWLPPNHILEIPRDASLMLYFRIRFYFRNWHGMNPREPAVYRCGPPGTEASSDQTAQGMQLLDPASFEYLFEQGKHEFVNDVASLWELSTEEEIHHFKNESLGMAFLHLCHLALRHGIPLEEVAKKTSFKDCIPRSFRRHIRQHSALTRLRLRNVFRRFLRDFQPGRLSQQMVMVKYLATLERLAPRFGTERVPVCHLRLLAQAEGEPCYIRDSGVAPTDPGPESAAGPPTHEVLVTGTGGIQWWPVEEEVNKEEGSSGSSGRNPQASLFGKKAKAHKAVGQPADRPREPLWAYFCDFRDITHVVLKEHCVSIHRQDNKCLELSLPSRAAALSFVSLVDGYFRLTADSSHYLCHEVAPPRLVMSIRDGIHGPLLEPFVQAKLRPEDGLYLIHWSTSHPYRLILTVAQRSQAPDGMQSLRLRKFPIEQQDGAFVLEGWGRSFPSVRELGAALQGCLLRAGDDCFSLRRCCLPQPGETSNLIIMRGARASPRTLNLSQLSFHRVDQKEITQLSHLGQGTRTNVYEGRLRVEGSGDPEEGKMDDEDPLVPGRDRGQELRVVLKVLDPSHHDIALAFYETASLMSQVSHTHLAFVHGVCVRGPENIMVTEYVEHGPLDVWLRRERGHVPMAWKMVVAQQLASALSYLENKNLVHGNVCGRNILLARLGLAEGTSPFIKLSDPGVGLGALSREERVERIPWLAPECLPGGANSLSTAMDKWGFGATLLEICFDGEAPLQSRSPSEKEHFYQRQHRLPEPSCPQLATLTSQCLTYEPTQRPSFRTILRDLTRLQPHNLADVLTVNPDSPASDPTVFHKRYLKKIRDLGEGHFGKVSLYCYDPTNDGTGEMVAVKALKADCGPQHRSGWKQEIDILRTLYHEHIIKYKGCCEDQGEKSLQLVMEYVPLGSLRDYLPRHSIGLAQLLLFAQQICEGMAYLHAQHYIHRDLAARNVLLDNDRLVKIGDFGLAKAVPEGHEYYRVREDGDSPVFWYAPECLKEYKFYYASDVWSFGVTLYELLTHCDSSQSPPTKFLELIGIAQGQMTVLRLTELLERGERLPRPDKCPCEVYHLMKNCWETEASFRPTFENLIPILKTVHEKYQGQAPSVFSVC

Row | Compound | IC50 (TYK2) [pM] | IC50 (JAK3) [pM]
1 | Cc1cc(Nc2nc(N[C@@H]3C[C@H]4CC[C@@H](C3)N4CCC#N)nc3cc(Br)ccc23)n[nH]1 [Embodiment 170, 3-((3-exo)-3-((7-bromine-4-((5-methyl-1H-pyrazol-3-yl)amino)quinazolin-2-yl)amino)-8-azabicyclo[3.2.1]oct-8-yl)propionitrile] | 225 | 
2 | Cc1cc(Nc2nc(N[C@@H]3C[C@H]4CC[C@@H](C3)N4S(=O)(=O)N3CC(C#N)C3)nc3sccc23)n[nH]1 [Embodiment 237, 1-(((3-exo)-3-((4-((5-methyl-1H-pyrazol-3-yl)amino)thieno[2,3-d]pyrimidin-2-yl)amino)-8-azabicyclo[3.2.1]oct-8-yl)sulfonyl)azetindin-3-formonitrile] | 320 | 3620
3 | COc1ccc2c(Nc3cc(C)[nH]n3)nc(N[C@@H]3C[C@H]4CC[C@@H](C3)N4CCC#N)nc2c1 [Embodiment 169, 3-((3-exo)-3-((7-methoxyl-4-((5-methyl-1H-pyrazol-3-yl)amino)quinazolin-2-yl)amino)-8-azabicyclo[3.2.1]oct-8-yl)propionitrile] | 500 | 28800
4 | Cc1cc(Nc2nc(N[C@@H]3C[C@H]4CCC[C@@H](C3)N4S(=O)(=O)N3CC(C#N)C3)nc3sccc23)n[nH]1 [Embodiment 238] | 120 | 710
5 | Cc1cc(Nc2nc(N[C@@H]3C[C@H]4CC[C@@H](C3)N4S(=O)(=O)N3CC(C#N)C3)nc3ccccc23)n[nH]1 [Embodiment 213, 1-(((3-exo)-3-((4-((5-methyl-1H-pyrazol-3-yl)amino)quinazolin-2-yl)amino)-8-azabicyclo[3.2.1]oct-8-yl)sulfonyl)azetindin-3-formonitrile] | 460 | 12600
6 | Cc1cc(Nc2nc(N[C@@H]3C[C@H]4CCC[C@@H](C3)N4CCC#N)nc3scnc23)n[nH]1 [Embodiment 278, 3-((3-exo)-3-((7-((5-methyl-1H-pyrazol-3-yl)amino)thiazolo[5,4-d]pyrimidin-5-yl)amino)-9-azabicyclo[3.3.1]non-9-yl)propionitrile] | 980 | 7050
7 | Cc1cc(Nc2nc(N[C@@H]3C[C@H]4CCC[C@@H](C3)N4C(=O)c3ccccn3)nc3sccc23)n[nH]1 [Embodiment 260, ((3-exo)-3-((4-((5-methyl-1H-pyrazol-3-yl)amino)thieno[2,3-d]pyrimidin-2-yl)amino)-9-azabicyclo[3.3.1]non-9-yl)(pyridin-2-yl)methanone] | 225 | 3830
8 | Cc1cc(Nc2nc(N[C@@H]3C[C@H]4CCC[C@@H](C3)N4C(=O)CN3CCOCC3)nc3sccc23)n[nH]1 [Embodiment 246, 1-((3-exo)-3-((4-((5-methyl-1H-pyrazol-3-yl)amino)thieno[2,3-d]pyrimidin-2-yl)amino)-9-azabicyclo[3.3.1]non-9-yl)-2-morpholinoethane-1-one] | 1880 | 6870
9 | Cc1cnc(Nc2cc3ncccc3c(N[C@@H]3C[C@H]4CC[C@@H](C3)N4CCC#N)n2)s1 [Embodiment 1, 3-((3-exo)-3-((7-((5-methylthioazol-2-yl)amino)-1,6-diazanaphthalen-5-yl)amino)-8-azabicyclo[3.2.1]oct-8-yl)propionitrile] | 550 | 2680
10 | Cc1cc(Nc2nc(N[C@@H]3C[C@H]4CC[C@@H](C3)N4CCC#N)nc3ccsc23)n[nH]1 [Embodiment 60, 3-((3-exo)-3-((4-((5-methyl-1H-pyrazol-3-yl)amino)thieno[3,2-d]pyrimidin-2-yl)amino)-8-azabicyclo[3.2.1]oct-8-yl)propionitrile] | 460 | 
11 | Cc1cc(Nc2nc(N[C@@H]3C[C@H]4CC[C@@H](C3)N4S(=O)(=O)N3CC(C#N)C3)nc3cc(Cl)ccc23)n[nH]1 [Embodiment 214] | 455 | 133000
12 | Cc1cc(Nc2nc(N[C@@H]3C[C@H]4CC[C@@H](C3)N4CCC#N)nc3sc(C)cc23)n[nH]1 [Embodiment 277, 3-((3-exo)-3-((6-methyl-4-((5-methyl-1H-pyrazol-3-yl)amino)thieno[2,3-d]pyrimidin-2-yl)amino)-8-azabicyclo[3.2.1]oct-8-yl)propionitrile] | 580 | 8260
13 | Cc1cc(Nc2nc(N(C)[C@@H]3C[C@H]4CCC[C@@H](C3)N4C(=O)CN3CCN(C)CC3)nc3sccc23)n[nH]1 [Embodiment 257, 1-((3-exo)-3-(methyl(4-((5-methyl-1H-pyrazol-3-yl)amino)thieno[2,3-d]pyrimidin-2-yl)amino)-9-azabicyclo[3.3.1]non-9-yl)-2-(4-methylpiperazin-1-yl)ethane-1-one] | 200 | 19900
14 | Cc1cc(Nc2nc(N[C@@H]3C[C@H]4CC[C@@H](C3)N4CCC#N)nc3cc(Cl)ccc23)n[nH]1 [Embodiment 171, 3-((3-exo)-3-((7-chloro-4-((5-methyl-1H-pyrazol-3-yl)amino)quinazolin-2-yl)amino)-8-azabicyclo[3.2.1]oct-8-yl)propionitrile] | 600 | 23300
15 | CNCC(=O)N1[C@@H]2CCC[C@H]1C[C@H](Nc1nc(Nc3cc(C)[nH]n3)c3ccsc3n1)C2 [Embodiment 247, 1-((3-exo)-3-((4-((5-methyl-1H-pyrazol-3-yl)amino)thieno[2,3-d]pyrimidin-2-yl)amino)-9-azabicyclo[3.3.1]non-9-yl)-2-(methylamino)-ethane-1-one] | 120 | 2400

From patent US20230043863A1, “HETEROAROMATIC DERIVATIVES FOR USE AS REGULATOR, PREPARATION METHOD THEREFOR AND USE THEREOF” (JIANGSU HANSOH PHARMACEUTICAL GROUP CO., LTD., priority 2018, published 2023)
